The source of these data is patent US20260042854A1, “ANTI-GLP-1R ANTIBODIES AND USES THEREOF” (SCIWIND BIOSCIENCES USA CO., LTD, priority 2022, published 2026).

One test relates to C57BL/6 mice. As to the kind of experiment: IPGTT in C57BL/6 mice (exogenous GLP-1 added). The format is in vivo, mouse. To be noted: GLP-1 25.0 nmol/kg i.p. with glucose. The method, then:
7-9-week-old male C57BL/6 mice (22-26 g) were assigned into 5 groups, with 5 mice in each group, and the mice in each group were treated according to the scheme shown in Table 6. The antibody treatment groups were given a single subcutaneous injection, and were fasted for 18 hours after the administration. […] The blood glucose levels of the mice before (0 min) and 15 min, 30 min. 60 min, 90 min, 120 min and 180 min after the administration of glucose were measured with blood glucose meter. The AUCs of the blood glucose-time curves of each mouse from 0 to 180 min were calculated with GraphPad Prism 9. The blood glucose levels and the AUCs were shown in Mean±SEM and the differences among groups were compared. Statistical differences were analyzed with One-way ANOVA. […] The significance markers were not shown in the line chart since they would overlap and be difficult to distinguish.

A further test concerns humanized GLP-1R mice. Briefly: IPGTT in humanized GLP-1R mice (exogenous GLP-1 added). The format is in vivo, mouse. The conditions noted are these: GLP-1 25 nmol/kg i.p. with glucose. Here is the method:
10-week-old female humanized GLP-1R mice (25-28 g, Shanghai Model Organisms Center Inc.) were assigned into 5 groups, with 5 mice in each group, and each group was treated according to the scheme in Table 6. The antibody treatment groups were subcutaneously injected with antibody, while the other groups were subcutaneously injected with vehicle (PBS) once a week for 2 consecutive weeks. IPGTTs were performed one day after the administration. The first subcutaneous administration of the antibody was on Day 0, and the second subcutaneous administration was on Day 7.
The blood glucose levels of the mice before (0 min) and 15 min, 30 min, 60 min, 90 min, 120 min and 180 min after the administration of glucose were measured with blood glucose meter. The AUCs of the blood glucose-time curves of each mouse from 0 to 180 min were calculated with GraphPad Prism 9. […] Statistical differences were analyzed with One-way ANOVA. […]
10-week-old female humanized GLP-1R mice (25-28 g) were assigned into 5 groups, with 5 mice in each group, and each group was treated according to the scheme in Table 10. […] The blood glucose levels of the mice before (0 min) and 15 min, 30 min, 60 min, 90 min, 120 min and 180 min after the administration of glucose were measured with blood glucose meter. The AUCs of the blood glucose-time curves of each mouse were calculated with GraphPad Prism 9. […]

A further test addresses T1, Mouse GLP-1R (Mus musculus, UniProt O35659).
T1 construct: expressed in transfected cells; host or cells: HEK293 (ATCC, CRL-1573)
T1 sequence (O35659 22-463): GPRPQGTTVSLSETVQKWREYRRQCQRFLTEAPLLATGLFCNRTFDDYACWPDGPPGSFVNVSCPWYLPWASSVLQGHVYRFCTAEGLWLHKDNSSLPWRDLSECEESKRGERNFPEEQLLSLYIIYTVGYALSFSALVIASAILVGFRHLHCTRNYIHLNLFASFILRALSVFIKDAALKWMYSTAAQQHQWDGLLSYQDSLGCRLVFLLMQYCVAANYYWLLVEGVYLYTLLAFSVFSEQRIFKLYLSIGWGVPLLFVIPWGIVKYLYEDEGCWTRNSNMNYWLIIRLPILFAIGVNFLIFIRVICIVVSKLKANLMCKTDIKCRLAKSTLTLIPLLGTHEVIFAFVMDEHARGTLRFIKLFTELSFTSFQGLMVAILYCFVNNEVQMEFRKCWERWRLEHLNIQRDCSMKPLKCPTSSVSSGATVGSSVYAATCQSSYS
Briefly: cAMP HTRF antagonism assay in HEK293 transfected with mouse GLP-1R. The test is classed as cell-based. The method, then: HEK293 cells (ATCC, cat no. CRL-1573) were transfected with GLP-1R_pcDNA3.1/G418 (+) plasmids which can transcribe the mRNA of human (NM_002062.5), monkey (JN033215.1) and mouse (NM_021332.2) GLP-1R polypeptide. […] The plate was further incubated at 37° C. for 120 minutes. Finally, the CAMP level was measured with cAMP HTRF kit (Cisbio, 62AM4PEB). […] The data were analyzed by four-parameter curve fitting with GraphPad Prism 9, and IC50 was calculated.
(In general: TR-FRET usually uses a lanthanide donor and a delayed reading to cut background.)

Consider “GLP-1: native GLP-1 (7-37aa, R&D Systems, cat no. 5374/1), agonist used to activate GLP-1R (HAEGTFTSDVSSYLEGQAAKEFIAWLVKGRG; Glucagon-like peptide 1(7-37); UniProt P01275 98-128, looked up) [reference compound]”, for which the “effect of GLP-1 on blood glucose levels (in words)” value with C57BL/6 mice was “could lower blood glucose levels”; in the test with humanized GLP-1R mice it was “can effectively lower the blood glucose levels”.

As for “exendin 9-39 [Avexitide, reference compound]”, the “antagonism of activation of mouse GLP-1R by GLP-1 (in words)” value at Mouse GLP-1R is recorded as “does antagonize the activation of mouse GLP-1R by GLP-1”.
